Results reported in patent publication US11634404B2 (priority 2016, dated 2023).
pEC50, pIC50: −log10 of the molar value.

Experiments:
Type in all cases: cell-based
D3 DAR = D3 DAR (Homo sapiens (Human), UniProt P35462); conditions: β-arrestin recruitment, agonist; for D3 Emax: 'curve' = wrapped cell 'curve interrupted'
D2 DAR [1] = target: T1, D2 DAR (Homo sapiens (Human), UniProt P14416); conditions: β-arrestin recruitment, agonist; for D2 Emax: 'curve' = wrapped cell 'curve interrupted'
D2 DAR [2] = target: T1, D2 DAR; conditions: β-arrestin recruitment, antagonist; for D2 Imax: 'curve' = wrapped cell 'curve interrupted'

D3 DAR, sequence (P35462 whole entry): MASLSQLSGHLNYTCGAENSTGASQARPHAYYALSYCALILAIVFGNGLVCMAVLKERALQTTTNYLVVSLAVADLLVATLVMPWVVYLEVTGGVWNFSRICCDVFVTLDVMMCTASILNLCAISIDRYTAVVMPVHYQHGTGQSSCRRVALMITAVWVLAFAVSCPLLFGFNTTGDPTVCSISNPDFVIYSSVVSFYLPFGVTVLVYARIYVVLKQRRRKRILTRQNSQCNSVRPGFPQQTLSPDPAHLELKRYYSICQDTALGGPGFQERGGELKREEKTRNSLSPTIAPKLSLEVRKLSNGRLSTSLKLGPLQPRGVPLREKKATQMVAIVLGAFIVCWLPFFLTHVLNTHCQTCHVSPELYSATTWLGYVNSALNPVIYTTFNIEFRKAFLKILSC
T1 sequence (P14416 whole entry): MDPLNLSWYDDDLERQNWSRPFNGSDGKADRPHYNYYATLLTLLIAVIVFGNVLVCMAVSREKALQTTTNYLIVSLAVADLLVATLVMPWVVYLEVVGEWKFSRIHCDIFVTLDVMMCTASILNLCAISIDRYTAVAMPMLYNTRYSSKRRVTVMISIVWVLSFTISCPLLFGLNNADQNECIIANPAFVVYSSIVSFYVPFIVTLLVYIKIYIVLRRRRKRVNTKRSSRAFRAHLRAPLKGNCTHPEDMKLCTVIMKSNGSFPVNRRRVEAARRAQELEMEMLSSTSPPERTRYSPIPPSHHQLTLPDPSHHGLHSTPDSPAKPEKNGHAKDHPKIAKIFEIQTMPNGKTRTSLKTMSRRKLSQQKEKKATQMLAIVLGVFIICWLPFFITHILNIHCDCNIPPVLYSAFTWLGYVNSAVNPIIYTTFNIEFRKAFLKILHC

Compound	D3 EC50 (D3 DAR)	D3 Emax (D3 DAR)	D2 EC50 (D2 DAR [1])	D2 Emax (D2 DAR [1])	D2 IC50 (D2 DAR [2])	pEC50 (D3 DAR)	pEC50 (D2 DAR [1])	pIC50 (D2 DAR [2])	D2 Imax (D2 DAR [2])
COc1ccc(OCCC2CCN(C(=O)c3ccc(OC)cc3)CC2)cc1 [Compound 117]	none	none	none	none	none	–	–	–	–
COc1ccc(C(=O)N2CCN(CCOc3cccnc3)CC2)cc1 [Compound 40]	–	–	–	–	–	7.77	5.54	< 4.00	–
COc1ccc(OCCN2CCN(C(=O)c3cc4ccccc4[nH]3)CC2)cc1OC [Compound 104]	–	–	none	none	–	6.15	–	< 4.30	–
COc1cccc(OCCN2CCN(C(=O)c3cc4cccnc4[nH]3)CC2)c1 [Compound 68]	–	–	–	–	None	7.30	6.89	–	–
O=C(c1cc2ccccc2[nH]1)N1CCN(CCOc2ccc(Cl)cc2)CC1 [Compound 101]	–	–	none	none	–	6.94	–	< 4.30	–
O=C(c1cc2ccccc2[nH]1)N1CCN(CCOc2cncc(Cl)c2)CC1 [Compound 13]	–	–	–	–	None	8.30	6.10	–	–
O=C(c1cc2ccccc2[nH]1)N1CCN(CCOc2ccc3cc[nH]c3c2)CC1 [Compound 109]	–	–	none	none	–	7.22	–	6.36	100
COc1ccc(OCCN2CCN(C(=O)c3cc4cccc(OC)c4[nH]3)CC2)cc1 [Compound 45]	–	–	–	–	–	6.01	5.22	< 4.00	–
O=C(c1cc2ccccc2[nH]1)N1CCN(CCOc2ccc(F)cc2)CC1 [Compound 15]	–	–	–	Curve	–	6.90	< 4.30	5.01	72
COc1ccc(OCCN2CCN(S(=O)(=O)c3ccc(OC)cc3)CC2)cc1 [Compound 116]	none	none	–	curve	none	–	< 4.00	–	–
Cn1c(C(=O)N2CCN(CCOc3cccnc3)CC2)cc2ccccc21 [Compound 81]	–	–	–	–	none	7.42	5.21	–	–
O=C(c1cc2ccccc2[nH]1)N1CCN(CCOc2ccncc2)CC1 [Compound 107]	–	–	none	none	–	6.33	–	< 4.00	–
CCC(=O)N1CCN(CCOc2ccc(OC)cc2)CC1 [Compound 64]	–	–	none	none	None	7.46	–	–	–
COc1cccc(OCCN2CCN(C(=O)c3cc4cc(OC)ccc4[nH]3)CC2)c1 [Compound 67]	–	–	–	–	None	6.55	5.77	–	–
COc1ccc(OCCN2CCN(C(=O)c3cc4cc(OC)ccc4[nH]3)CC2)cc1 [Compound 46]	–	–	–	–	–	6.28	5.11	< 4.00	–
O=C(c1ccc[nH]1)N1CCN(CCOc2cccnc2)CC1 [Compound 90]	–	–	–	–	–	6.93	5.21	< 4.00	–
COc1ccc(OCCN2CCN(C(=O)c3cc4ccncc4[nH]3)CC2)cc1 [Compound 57]	–	–	–	–	–	6.09	5.11	< 4.00	–
CC(C)(C)c1ccc(OCCN2CCN(C(=O)c3cc4ccccc4[nH]3)CC2)cc1 [Compound 99]	none	none	none	none	–	–	–	< 4.00	–
COc1ccc(OCCN2CCN(C(=O)c3ccc(OC)cc3)CC2)cc1 [Compound 33]	–	–	none	none	–	6.15	–	4.85	100
COc1cccc(OCCN2CCN(C(=O)c3cc4cc(OC)ccc4[nH]3)CC2)c1 [Compound 29]	–	–	–	–	None	6.55	5.77	–	–
COc1ccc(OCCN2CCN(C(=O)c3cc4ccccc4[nH]3)CC2)c(Cl)c1 [Compound 105]	–	–	–	curve	–	7.11	< 4.30	< 4.30	–
COc1ccc(OCCN2CCN(C(=O)c3ccncc3)CC2)cc1 [Compound 43]	–	–	none	none	none	4.66	–	–	–
CSc1cccc(OCCN2CCN(C(=O)c3cc4ccccc4[nH]3)CC2)c1 [Compound 93]	–	–	none	none	–	6.20	–	< 4.00	–
